Results: patent US20090016959A1, “Delivery of antibodies to the central nervous system” (priority 2005, published 2009)
Residues, ends and D or L forms follow the SMILES beside them.

What was measured:
[1] = tested on: bovine brain capillary endothelial cells; assay: In vitro BBB model, second screening level with iodinated peptides (cpm ratios); assay type: in vitro ADME
Method: (§1) This BBCEC medium was changed three times a week.
Two iodo-beads were used for each protein.
Results were expressed as cpm ratios. […] The ratio between the number of [^125I]-peptide found in the bottom chamber of filters covered with or without endothelial cells was also calculated (+cells/−cells).

[2] = tested on: bovine brain capillary endothelial cells; assay: In vitro BBB model, first level of selection: peptides in lower chamber visualized by Coomassie blue; assay type: in vitro ADME; settings: first level of screening; 90 minutes at 37° C
Excerpt: as §1
The medium was changed twice a week.

[3] = tested on: in vitro model of the blood brain barrier; assay: Transcytosis capacity across the in vitro BBB model (Pe); assay type: in vitro ADME, bovine
Method: as §1
Transcytosis capacity of Aprotinin-Paclitaxel conjugate was determined and is reported below in Table 5.

| Ratios −cells/initial [1] | Ratios +cells/−cells ([1]; [125I]-peptide in bottom chamber of filters with versus without endothelial cells) | Ratios +cells/initial ([1]; [125I]-peptide, cpm in bottom chamber / total cpm added, filter covered with endothelial cells, 90 minutes at 37° C) | Molecule | peptides detected in the lower side of the chambers by Coomassie blue staining [2] | Transcytosis (Pe 10^−3 cm/min) [3] |
| --- | --- | --- | --- | --- | --- |
| 0.072 | 0.37 | 0.027 | C[C@@H](O)[C@H](NC(=O)[C@H](CCCCN)NC(=O)[C@H](Cc1ccccc1)NC(=O)[C@H](CC(N)=O)NC(=O)[C@H](CC(N)=O)NC(=O)[C@H](CCCNC(=N)N)NC(=O)[C@H](CCCCN)NC(=O)CNC(=O)[C@H](CCCNC(=N)N)NC(=O)[C@H](CS)NC(=O)[C@H](CS)NC(=O)CNC(=O)[C@H](Cc1ccc(O)cc1)NC(=O)[C@H](Cc1ccccc1)NC(=O)[C@H](Cc1ccccc1)NC(=O)[C@@H](NC(=O)[C@@H](N)CS)[C@@H](C)O)C(=O)N[C@@H](CCC(=O)O)C(=O)N[C@@H](CCC(=O)O)C(=O)N[C@@H](Cc1ccc(O)cc1)C(=O)O [Peptide 71] (H-CTFFYGCCRGKRNNFKTEEY-OH; N-terminus and C-terminus assumed) | detected in the lower side of the chambers |  |
|  |  |  | aprotinin |  | 0.2 10^−3 cm/min |
